Experimental data as given in patent US8088804B2, “N-hydroxyamide derivatives possessing antibacterial activity” (Pfizer Inc., priority 2005, dated 2012).
≈ marks a conversion by molar mass, not a printed value.

Key:
E. coli (2) = assay: Susceptibility testing (MIC, CLSI microdilution); format: cell-based, Escherichia coli; details: 20 h at 35° C., in µg/mL (unit assumed)
Description: (§1) Compounds were tested following the microdilution method of CLSI (Clinical and Laboratory Standards Institute. Methods for dilution antimicrobial susceptibility tests for bacteria that grow aerobically; Approved standard—sixth edition. CLSI document M7-A5, CLSI, Wayne, Pa. 2003). Assays were performed in sterile plastic 96-well microtiter trays with round bottom wells (Greiner).
(§2) Stock solutions of test compounds and control antibiotics were prepared at 10 mg/ml in DMSO. Serial 2-fold dilutions of each drug were performed in a microtiter plate across each row using DMSO as solvent at 100-fold the desired final concentration. Wells in columns #1-11 contain drug and column #12 was kept as a growth control for the organism with no drug. Each well in the mother plate was diluted with sterile deionized water and DMSO, mixed, and volumes of 10 μl distributed to each well in the resulting assay plates.
(§3) Stock cultures were prepared using the Microbank™ method (Pro-Lab Diagnostics) and stored at −80° C. To propagate each strain, one bead was removed from the frozen vial and aseptically streaked onto Trypticase Soy Agar (Difco) which were incubated at 35° C. Standardized inocula were prepared using the direct colony suspension method according to CLSI guidelines (Clinical and Laboratory Standards Institute. Methods for dilution antimicrobial susceptibility tests for bacteria that grow aerobically; Approved standard—sixth edition. CLSI document M7-A5, CLSI, Wayne, Pa., 2003). Isolated colonies were selected from an 18-24 hr agar plate and resuspended in 0.9% sterile saline to match a 0.5 McFarland turbidity standard using a calorimeter (Vitek) at 80% of transmitance. The suspension was used within 15 minutes of preparation.
(§4) Mueller-Hinton Broth (MHB) (Difco) was prepared at a 1.1× concentration and supplemented with Ca++ and Mg++ as recommended by CLSI. For each organism, the standardized suspension was diluted 1:180 into appropriate growth medium in a sterile reservoir. After mixing, wells in the drug-containing assay plates were inoculated with a volume of 90 μl. Thus, for each minimum inhibitory concentration (MIC) determination, each well contains a final volume of 100 μl with an inoculum size of approximately 5×10^5 colony forming units (cfu)/ml and no more than 1% DMSO.
(§5) The completed microtiter plates were incubated 20 h at 35° C. in ambient air. Optical density of each well was determined at 600 nm using a VersaMax Microplate reader (Molecular Devices, Sunnyvale, Calif.). The MIC was defined as the lowest drug concentration causing complete suppression of visible bacterial growth.

E. coli tolC = assay: Susceptibility testing (MIC, CLSI microdilution); format: cell-based, Escherichia coli; details: 20 h at 35° C., unit assumed
Description: as §1, §2, §3, §4, §5

P. aerug. (2) = assay: Susceptibility testing (MIC, CLSI microdilution); format: cell-based, Pseudomonas aeruginosa; details: 20 h at 35° C., in µg/mL (unit assumed)
Description: as §1, §2, §3, §4, §5

P. aerug. Hypersuc = assay: Susceptibility testing (MIC, CLSI microdilution); format: cell-based, Pseudomonas aeruginosa; details: 20 h at 35° C., Δ efflux, hypersusceptible strain, unit assumed
Description: as §1, §2, §3, §4, §5

K. pneu. = assay: Susceptibility testing (MIC, CLSI microdilution); format: cell-based, Klebsiella pneumoniae; details: 20 h at 35° C., unit assumed
Description: as §1, §2, §3, §4, §5

H. influen. = assay: Susceptibility testing (MIC, CLSI microdilution); format: cell-based, Haemophilus influenzae; details: 20 h at 35° C., unit assumed
Description: as §1, §2, §3, §4, §5

P. ae LpxC enzyme = P. ae LpxC enzyme (Pseudomonas aeruginosa, UniProt P47205); assay: Enzyme inhibition testing (fluorescamine assay); format: biochemical; details: read-out: ENZYME (percent inhibition); for inhibition at 0.5 µg/mL: @0.5 μg/ml; for inhibition at 0.1 µg/mL: @0.1 μg/ml
P. ae LpxC enzyme, sequence (P47205 whole entry): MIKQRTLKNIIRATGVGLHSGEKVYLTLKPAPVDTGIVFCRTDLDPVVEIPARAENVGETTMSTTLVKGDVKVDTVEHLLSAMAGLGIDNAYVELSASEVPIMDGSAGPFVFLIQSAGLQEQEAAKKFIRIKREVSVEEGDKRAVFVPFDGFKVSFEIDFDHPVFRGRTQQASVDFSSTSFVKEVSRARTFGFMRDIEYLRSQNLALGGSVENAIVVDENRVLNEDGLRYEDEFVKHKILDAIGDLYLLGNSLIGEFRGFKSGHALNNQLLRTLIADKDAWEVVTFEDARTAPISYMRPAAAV
Description: Compounds were tested based on a published method (Wang W., 2001, Anal Biochem, 290, 338-46) with modifications. Enzyme assays were performed in the assay buffer (50 mM HEPES, pH8, 0.005% Brij, 50 μM ZnSO4, 1 mg/ml BSA) in 96-well V-bottom microtiter plates.
Stock solutions of test compounds and control antibiotics are prepared at 10 mg/ml in DMSO and are diluted in the assay buffer to 6-fold the final testing concentration. 5 μl compound dilution is distributed to the well of the assay plate. EDTA is used as positive control and the final concentration in assay is 12.5 mM.
P. ae LpxC enzyme dilution in the assay buffer is added to the compound in plate and pre-incubated with the compound at room temperature for 10 min. LpxC substrate is added to initiate the enzyme reaction and the final enzyme and substrate concentrations are 1.2 μM and 0.4 mM, respectively. The reaction continues at RT for 4 hrs before diluted with 45 μl of Borate buffer (0.4 M, pH9), followed by addition of 40 μl derivatization reagent (fluorescamine 2 mg/ml DMF). This mixture is incubated at RT for 10 min followed by addition of 150 μl DMF/H2O (1:1). The resulting solution is loaded onto Millipore filter unit (Microcon 10 k MWCO) and spun at 13 k rpm on bench top centrifuge for 15 min. 100 μl of this filtrate is transferred to a low fluorescence clear-bottom 96-well plate (Corning) and the fluorescence is detected at ex360 nm and em465 nm on a Tecan fluorescence plate reader. The percent inhibition is calculated based on EDTA produces 100% inhibition and negative control produces 100% activity.

| Structure (SMILES) | MIC E. coli (2) (E. coli (2)) | MIC E. coli tolC (E. coli tolC) [µg/mL] | MIC P. aerug. (2) (P. aerug. (2)) | MIC P. aerug. Hypersuc (P. aerug. Hypersuc) [µg/mL] | MIC K. pneu. (K. pneu.) [µg/mL] | MIC H. influen. (H. influen.) [µg/mL] | inhibition at 0.5 µg/mL (P. ae LpxC enzyme) [%] | inhibition at 10 µg/mL (P. ae LpxC enzyme; @10 μg/ml) [%] | inhibition at 0.1 µg/mL (P. ae LpxC enzyme) [%] |
| --- | --- | --- | --- | --- | --- | --- | --- | --- | --- |
| CCCc1ccc(-c2ccc(C(=O)N3C[C@H](O)[C@H](O)[C@H]3C(=O)NO)cc2)cc1 [Compound 10] | >64 | 64 (≈ 166 µM) | >64 | 64 (≈ 166 µM) | > 64 | > 64 | 60 | – | – |
| CCCc1ccc(-c2ccc(C(=O)N3C[C@@H](N)[C@H](O)[C@H]3C(=O)NO)cc2)cc1 [Compound 11, (2S,3S,4R)-4-Amino-N,3-dihydroxy-1-(4′-propylbiphenylcarbonyl)pyrrolidine-2-carboxamide] | >64 | 32 (≈ 83.5 µM) | 64 | 16 (≈ 41.7 µM) | > 64 | 32 (≈ 83.5 µM) | 84 | – | – |
| CCCc1ccc(-c2ccc(C(=O)N3CCS[C@H]3C(=O)NO)cc2)cc1 [Compound 13] | >64 | > 64 | 64 | 16 (≈ 43.2 µM) | 32 (≈ 86.4 µM) | 64 (≈ 173 µM) | – | 71 | – |
| CCCc1ccc(-c2ccc(C(=O)N3CC[S+]([O-])[C@H]3C(=O)NO)cc2)cc1 (stereo partly drawn) [Compound 14, (S)-N-Hydroxy-3-(4′-propylbiphenylcarbonyl)thiazolidine-sulfoxide-2-carboxamide] | >64 | 16 (≈ 41.4 µM) | 32 | 8 (≈ 20.7 µM) | 64 (≈ 166 µM) | > 64 | 99 | – | – |
| CCCc1ccc(-c2ccc(C(=O)N3CCS(=O)(=O)[C@H]3C(=O)NO)cc2)cc1 [Compound 15, (S)-N-Hydroxy-3-(4′-propylbiphenylcarbonyl)thiazolidine-sulfone-2-carboxamide] | 16 | 2 (≈ 4.97 µM) | 8 | 2 (≈ 4.97 µM) | 4 (≈ 9.94 µM) | 32 (≈ 79.5 µM) | – | – | 41 |
| CCCc1ccc(-c2ccc(C(=O)N3CSC[C@H]3C(=O)NO)cc2)cc1 [Compound 16] | >64 | 16 (≈ 43.2 µM) | >64 | 16 (≈ 43.2 µM) | > 64 | > 64 | 57 | – | – |
| CCCc1ccc(-c2ccc(C(=O)N3CCS[C@@H]3C(=O)NO)cc2)cc1 [Compound 18, (R)-N-Hydroxy-3-(4′-propylbiphenylcarbonyl)thiazolidine-2-carboxamide] | >64 | 16 (≈ 43.2 µM) | >64 | 32 (≈ 86.4 µM) | 32 (≈ 86.4 µM) | 64 (≈ 173 µM) | 50 | – | – |
| CCCc1ccc(-c2ccc(C(=O)N3CCS(=O)(=O)[C@@H]3C(=O)NO)cc2)cc1 [Compound 19, (R)-N-Hydroxy-3-(4′-propylbiphenylcarbonyl)thiazolidine-sulfone-2-carboxamide] | 8-16 | 2 (≈ 4.97 µM) | 8 | 2 (≈ 4.97 µM) | 4 (≈ 9.94 µM) | 32 (≈ 79.5 µM) | – | – | 10 |
| CCCc1ccc(-c2ccc(C(=O)N[C@@H](CCSC)C(=O)NO)cc2)cc1 [Compound 26, (S)-N-(1-(Hydroxyamino)-4-(methylthio)-1-oxobutan-2-yl)-4′-propylbiphenyl-4-carboxamide] | >64 | > 64 | >64 | > 64 | > 64 | > 64 | 72 | – | – |
| CCCc1ccc(-c2ccc(C(=O)N[C@@H](CCS(C)(=O)=O)C(=O)NO)cc2)cc1 [Compound 27, (S)-N-(1-(Hydroxyamino)-4-(methylsulfone)-1-oxobutan-2-yl)-4′-propylbiphenyl-4-carboxamide] | >64 | > 64 | >64 | > 64 | > 64 | > 64 | – | – | 38 |
| CCCc1ccc(-c2ccc(C(=O)NC(C(=O)NO)c3cccs3)cc2)cc1 (stereo not shown) [Compound 30, N-(2-(Hydroxyamino)-2-oxo-1-(thiophen-2-yl)ethyl)-4′-propylbiphenyl-4-carboxamide] | 64 | 2 (≈ 5.07 µM) | >64 | 32 (≈ 81.1 µM) | 8 (≈ 20.3 µM) | 16 (≈ 40.6 µM) | 87 | – | – |
| CCCc1ccc(-c2ccc(C(=O)N[C@@H](Cn3cccn3)C(=O)NO)cc2)cc1 [Compound 31] | >64 | 1 (≈ 2.55 µM) | >64 | 64 (≈ 163 µM) | > 64 | > 64 | 100 | – | – |
| CCOc1ccc(-c2ccc(C(=O)N3CCS(=O)(=O)[C@H]3C(=O)NO)cc2)cc1 [Compound 33, (S)-3-(4′-Ethoxybiphenylcarbonyl)-N-hydroxythiazolidinesulfone-2-carboxamide] | >64 | ≤ 0.06 | 4-16 | 2 (≈ 4.95 µM) | 32 (≈ 79.1 µM) | 16 (≈ 39.6 µM) | – | – | 12 |
